Reference: ChEMBL document CHEMBL3507680, “University of Dundee, Gates Library screen for HepG2 cell viability”

Assay: Human HepG2 cell viability assay in 384 well format
Assay type: toxicity, cell-based
Set-up: dose 125 nL, time 70.5 hour; concentration not given beside the values
Conditions: HepG2 cells, read-out: Inhibition

| SMILES | cytotoxicity at 70.5 h [%] |
| --- | --- |
| CC1(C(=O)N2CCN(C3CCCC3)CC2)CNCCO1 (stereo not given) | -7.45 |
| CCc1cc(CNC(=O)N2CCC(Cc3cnn(C)c3)C2)on1 (stereo not given) | -4.1 |
| Cc1ccc(C(=O)N2C[C@@H](NS(C)(=O)=O)[C@H](C(C)C)C2)cc1O | 1.71 |
| CCc1cnc(CCNS(C)(=O)=O)s1 | -6.67 |
| CCc1nc(C2CCCN(C(=O)c3ccc(OC)cc3)C2)no1 (stereo not given) | 0.812 |
| Cc1oncc1C(=O)N[C@@H]1CN(CC2CC2)C[C@@H]2CCCO[C@@H]21 | -10.1 |
| CN(CC(=O)N1CCCCC1c1nc(C(C)(C)C)cs1)C1CC1 (stereo not given) | 1.94 |
| O=C(Nc1ccc(F)cc1F)NC1(CO)CCOCC1 | -4.4 |
| O=C(CC1C=CCC1)N1CCc2ncnc(NCc3ccon3)c2CC1 (stereo not given) | 23.6 |
| CC(C)NC(=O)N(Cc1cc(O)nc2ccccc12)C(C)C | -7.39 |
| CCc1nc(N2CCCC(CO)(CCOC)C2)ncc1C (stereo not given) | -7.73 |
| CC(C)CC(C)NC1CCN(c2ccc(-c3cscn3)cc2)CC1 (stereo not given) | -15.5 |
| CN(CC1CN(Cc2cn3ccsc3n2)CCO1)c1cccnn1 (stereo not given) | -2.29 |
| O=C(CCc1nc(Cl)n[nH]1)N1CCC2(CCCN(CC3CCC3)C2=O)C1 (stereo not given) | -7.56 |
| Cc1ccccc1C1(O)CCN(C(=O)CCc2cn3ccccc3n2)C1 (stereo not given) | 17.9 |
| CCc1noc(CNc2ccc(C(=O)N3CCCC3)cc2C)n1 | 10.5 |
| CN(C)C(=O)CNC(=O)c1nc2c(s1)CCCN2Cc1ccccc1 | -2.15 |
| CCn1nnc(NCc2cc(Br)cc(Br)c2OC)n1 | -18.9 |
| Cc1cc(C(=O)N(C)Cc2cccs2)nc(N2CCCC2)n1 | -6.81 |
| CCc1[nH]ncc1C(=O)N1CCCN(Cc2cnn(C)c2)CC1 | -10.9 |
| COc1ccccc1N1CCC(CNCc2ccc(C#N)cc2)C1 (stereo not given) | 2.02 |
| CCN1C(=O)C(c2ccccc2)CC12CCN(Cc1cccnc1)CC2 (stereo not given) | -7.6 |
| Cc1nc(C)n(CC2CCCN2Cc2nnc(-c3ccco3)o2)n1 (stereo not given) | 11.1 |

| SMILES | cytotoxicity at 70.5 h [%] |
| --- | --- |
| Oc1cc(CNCCN2CCCCC2)nc2c(F)cccc12 | 24.5 |
| CCS(=O)(=O)NCCCNc1ncnc2cc(F)c(F)cc12 | -0.956 |
| CC(CN1CCOCC1)NC1CCN(Cc2cccc(O)c2)CC1 (stereo not given) | -8.8 |
| Clc1ccc(CN2CCOC[C@H](Oc3cccnc3)C2)cc1 | -2.34 |
| CS(=O)(=O)N1CC2(CCN(Cc3ccccn3)C2)Cc2ccccc21 (stereo not given) | -8 |
| CC(C)CNC(=O)c1nc2c(s1)CCN(C(=O)c1ccc(Cl)cc1)CC2 | -3.22 |
| COc1ccccc1C(C)(C)NC(=O)NC1CCC(O)CC1 (stereo not given) | -15.4 |
| Cc1cccc(CN2CCN(C(=O)c3cc(Cl)c[nH]c3=O)CC2)c1 | -4.23 |
| CNC(=O)CN1CCC(NC(=O)Cc2ccc3c(c2)OCCO3)CC1 | 0.523 |
| CC(=O)NC(Cc1c[nH]c2cc(F)ccc12)C(=O)Nc1cnn(C)c1 (stereo not given) | 1.79 |
| Cc1cc(N(C)C)nc(C2(C)CCCN2C(=O)c2cnccn2)n1 (stereo not given) | -21.4 |
| CCCc1cnc(C)nc1N1CCC(Cn2cc(CN(C)C)nn2)CC1 | -6.13 |
| CNc1snc(C)c1C(=O)N1CCC(Nc2ccc(C)nn2)CC1 | -3.58 |
| COCC(O)CNC(=O)c1cnc(-c2ccccc2)nc1O (stereo not given) | -11.4 |
| CCc1noc(C2CCCCN2C(=O)c2cc(C)oc2C)n1 (stereo not given) | 11.6 |
| CN(C)CC1CN(Cc2coc(-c3cccs3)n2)CCO1 (stereo not given) | 1.06 |
| Cc1ccc(OC2CCN(S(=O)(=O)N(C)C)CC2)nc1 | -12.1 |
| OC1(CNc2ccc(Br)cn2)CCSCC1 | 15.9 |
| O=C1NC2(CCN(CC(=O)N3CCOCC3)CC2)Nc2ccccc21 | -2.3 |
| Cc1noc([C@]23COC[C@H]2CN(S(=O)(=O)N(C)C)C3)n1 | -1.88 |
| COCC(=O)N1CCCCC1c1nc(C)c2c(n1)N(C1CC1)C(=O)CC2 (stereo not given) | -3.68 |
| O=C(c1ccsc1)N1CC[C@@H](N2CCOCC2)[C@@H]1Cc1ccccc1 | -11.8 |
| Cn1cc(-c2cnc(N3CCOCC3)nc2)cc1C(=O)O | -2.63 |

| SMILES | cytotoxicity at 70.5 h [%] |
| --- | --- |
| Cc1cnc(N2CCOC3(CCCN(C)C3)C2)nc1 (stereo not given) | -10.1 |
| CN1CC(=O)N(c2cccc(F)c2)CC12CCNC2 (stereo not given) | 1.26 |
| O=C1NC2(CCN(Cc3cccnc3)CC2)CC1c1cccnc1 (stereo not given) | -8.55 |
| COCCC1(CO)CCCN(Cc2cc(C(F)(F)F)ccc2F)C1 (stereo not given) | -1.42 |
| CCCc1nc(CNCC2CCCN2c2cccnn2)no1 (stereo not given) | 22.6 |
| CC1CCN(CCNC(=O)C(C)n2cncn2)CC1 (stereo not given) | -2.14 |
| COc1cccc(CN2CCCC(c3nn(C)c4nccnc34)C2)c1 (stereo not given) | 14.8 |
| CC(NCc1c(C(C)C)nn(C)c1N1CCOCC1)C(=O)N(C)C (stereo not given) | 23 |
| CCc1cc(C(=O)N2CCC(O)(Cn3ccc4ccncc43)CC2)no1 | -5.47 |
| Cc1noc([C@@H]2C[C@H]3OCC[C@H]3N(CC3CCCC3)C2)n1 | -10.4 |
| CN1CCN2C(=O)N(c3ccccc3)C[C@H]2C1 | -0.222 |
| COCCN1CCN(S(C)(=O)=O)Cc2cccnc21 | -5.85 |
| CCCn1cc(CN2CCOCC2c2[nH]ncc2C)cn1 (stereo not given) | -2.99 |
| COC(=O)C(NC(=O)C1CCC1)c1cc(F)ccc1F (stereo not given) | -7.83 |
| CCOC(=O)C1CC2(CCOCC2)N2CCC(=O)N12 (stereo not given) | -6.97 |
| CCC(NC1CCN(C(=O)c2ccccc2)CC1)c1cccs1 (stereo not given) | -16.9 |
| CNS(=O)(=O)c1cccc(CNc2nccc(C(F)(F)F)n2)c1 | 53.4 |
| O=C(O)c1cc(-c2ccoc2)cc(S(=O)(=O)NCc2ccccn2)c1 | -8.18 |
| Cc1n[nH]c(C2CN(CCc3cccs3)CCO2)n1 (stereo not given) | 14.5 |
| O=C(NCc1cc[nH]n1)NCC(O)c1ccccc1F (stereo not given) | 0.0915 |
| CN(C)CC(=O)N1CCc2ncnc(-c3ccoc3)c2CC1 | -0.0529 |
| O=S(=O)(C1CC1)N1C[C@H](Oc2ccccn2)[C@H]2OCCC[C@H]21 | -0.632 |
| COc1ccc(C2=CCN(C(=O)C3CCC3)CC2)cc1 | -1.58 |

| SMILES | cytotoxicity at 70.5 h [%] |
| --- | --- |
| COCCN1CCC(CNC(=O)C2(c3cc(C)cc(C)c3)CCC2)C1 (stereo not given) | -5.65 |
| COCCn1ccc2c(C(=O)NCC3CCCO3)cccc21 (stereo not given) | -8.34 |
| CCc1n[nH]c(C2CN(C(=O)c3cnn(CC)c3)CCO2)n1 (stereo not given) | 19.6 |
| O=C(NCCc1nccs1)[C@H](c1ccccc1)n1cnnn1 | -5.33 |
| Oc1cccc(CNCc2ccc(-n3cncn3)nc2)c1 | 0.561 |
| CCCc1cc(NCc2nc(COC)no2)n2nccc2n1 | -0.144 |
| CCn1ccnc1C1CCN(C(=O)C(O)c2ccc(Cl)cc2)CC1 (stereo not given) | -2.92 |
| Cc1cc(C)n(CC2CCCN2CC(=O)Nc2cc(C(C)C)no2)n1 (stereo not given) | 14.2 |
| CC(=O)N1CCN(c2cnccn2)CC(CO)C1 (stereo not given) | -5.92 |
| Cc1cnn(CC2CN(CC(=O)Nc3c(C)nn(C)c3C)CCO2)c1 (stereo not given) | -4.95 |
| O=C(NC1(c2cccc(F)c2)CCOCC1)c1ccoc1 | -6.8 |
| CC1CCN(CC(O)CN2CCn3c(nnc3C3CC3)C2)CC1 (stereo not given) | 35.7 |
| Cc1cccc(CS(=O)(=O)NCc2nn(C)c3c2CCCC3)c1 | -2.52 |
| CN1CCOC(CNCc2ccc(OCc3ccccn3)cc2)C1 (stereo not given) | -6.69 |
| Cn1cc(C#N)c(=O)n(CC(O)c2ccccc2F)c1=O (stereo not given) | -13.2 |
| COCCn1c(=O)n(Cc2ccccc2C)c2cc(C(=O)O)ccc21 | -7.93 |
| O=C(c1cnccn1)N1CCN(Cc2cccnc2)c2ncccc2C1 | -8.24 |
| Fc1cccc(-n2cc(CN3CCCCC3CCn3ccnc3)cn2)c1 (stereo not given) | 4.66 |
| CC(C)c1nccn1C1CCCN(C(=O)c2cn3cccnc3n2)C1 (stereo not given) | -3.43 |
| COc1ccc(-c2n[nH]cc2CN(C)Cc2nccn2C)c(F)c1 | -3.33 |
| N#Cc1ccc(CS(=O)(=O)NC(=O)c2ccc3c(c2)COC3)cc1 | 14.9 |
| Cc1ccc(C(=O)N2C[C@@H]3CCCO[C@@H]3[C@H](N3CCCC3)C2)cn1 | 0.948 |
| CN(CCc1cn[nH]c1)Cc1nc(Cc2cccc(C(F)(F)F)c2)no1 | 3.03 |

| SMILES | cytotoxicity at 70.5 h [%] |
| --- | --- |
| CSCC(C)(O)CNS(=O)(=O)c1cccc(Cl)c1 (stereo not given) | -4.18 |
| Cc1cccc(CN(C(=O)CS(C)(=O)=O)C(C)C)c1 | -2.96 |
| Cc1nc(CN(C)C(=O)Nc2cccc(C)c2C)no1 | -9.32 |
| Cn1cc(CN2C[C@@H]3COC[C@H](C(=O)Nc4cccnc4)[C@@H]3C2)cn1 | 44.2 |
| O=C(NCCc1ccccc1)C1CCN(C(=O)Cn2cncn2)C1 (stereo not given) | -10.2 |
| O=C(O)Cn1nc(C2CC2)c2c(-c3ccco3)ccnc21 | 30.2 |
| CSCC(C)(O)CNC(=O)c1ccc(Br)cc1F (stereo not given) | -5.28 |
| COc1ccccc1C(=O)N1CCCC1c1ncc2c(n1)CCNC2 (stereo not given) | -2.07 |
| Cc1cc(C)nc(C2CCN(C(=O)CO)CC2)n1 | -6.07 |
| CO[C@H]1CCN(C(=O)Cc2ccc(F)cc2)[C@H]1Cc1ccncc1 | -8.07 |
| COCC(=O)N[C@H](C(=O)NC(C)c1cccc(C)c1C)C(C)C (stereo not given in full) | 0.118 |
| CC(Cn1cccn1)NCc1csc(-c2ccc(F)cc2)n1 (stereo not given) | 5.69 |
| CC(O)CN1CCC(CNCc2cccc(OC(C)C)c2)CC1 (stereo not given) | 47 |
| COc1ccccc1C1CNC(=O)c2nc(-c3nccn3C)[nH]c2C1 (stereo not given) | 5.33 |
| FC(F)(F)COCCN1CCCC(c2noc(C3CC3)n2)C1 (stereo not given) | -10.4 |
| COc1cc(C)nc(N2CCN(C(=O)CCc3ccncc3)CC2)n1 | 28 |
| CC(C)(C)c1cnc(CN2CCC(NC(=O)Nc3ccccc3)CC2)o1 | 15.4 |
| CCC(C)N(Cc1ccncc1)C(=O)CCC(=O)OC (stereo not given) | 4.04 |
| C1CC(CO[C@@H]2CC[C@H]3[C@H]2OCCN3CC2CC2)CCO1 | -82.4 |
| O=C(CCCNC(=O)c1cnccn1)Nc1ncc[nH]1 | -27.2 |
| CN(C)CC1CN(c2cnc3ccccc3n2)CCO1 (stereo not given) | 11.3 |
| COc1ccc(CNCC(C)Oc2ccccn2)cc1Cl (stereo not given) | -8.86 |
| Cc1cccc(CN2CC3(CCN(C(N)=O)CC3)OCC2=O)n1 | -10.4 |
